For one assay, the target named is T1, hVAChT A330V (Homo sapiens, UniProt Q16572, A330V).
T1 sequence (Q16572 1-532 A330V): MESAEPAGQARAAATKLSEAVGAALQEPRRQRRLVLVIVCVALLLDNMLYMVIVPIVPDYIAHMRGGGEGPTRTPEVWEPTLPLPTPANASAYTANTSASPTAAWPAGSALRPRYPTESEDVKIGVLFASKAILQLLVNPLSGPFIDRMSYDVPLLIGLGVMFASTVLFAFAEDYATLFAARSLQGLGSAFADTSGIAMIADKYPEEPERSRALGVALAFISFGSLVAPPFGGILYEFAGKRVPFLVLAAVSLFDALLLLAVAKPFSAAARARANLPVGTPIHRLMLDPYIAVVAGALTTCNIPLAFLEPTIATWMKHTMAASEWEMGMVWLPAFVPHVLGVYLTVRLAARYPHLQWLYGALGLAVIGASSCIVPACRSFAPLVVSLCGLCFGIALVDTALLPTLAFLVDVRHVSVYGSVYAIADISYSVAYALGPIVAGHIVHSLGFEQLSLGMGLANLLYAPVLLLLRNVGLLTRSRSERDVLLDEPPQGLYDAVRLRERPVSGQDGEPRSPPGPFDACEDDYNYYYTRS
Kind of assay: [3H]vesamicol saturation binding. The following applies: pH 7.4.

The next assay addresses T2, hVAChT M316A (Homo sapiens, UniProt Q16572, M316A).
T2 sequence (Q16572 1-532 M316A): T1 sequence (Q16572 1-532 A330V) with M316A, V330A
Nature of the assay: [3H]ACh transport. The format is biochemical.

The target in the next assay is T3, hVAChT W325F (Homo sapiens, UniProt Q16572, W325F).
T3 sequence (Q16572 1-532 W325F): T1 sequence (Q16572 1-532 A330V) with W325F, V330A
Kind of assay: [3H]ACh transport. The format is biochemical.

In the next assay the target is T4, hVAChT W331L (Homo sapiens, UniProt Q16572, W331L).
T4 sequence (Q16572 1-532 W331L): T1 sequence (Q16572 1-532 A330V) with V330A, W331L
Nature of the assay: ACh equilibrium binding by competition against [3H]vesamicol.

In another assay the target is T5, hVAChT C388A (Homo sapiens, UniProt Q16572, C388A).
T5 sequence (Q16572 1-532 C388A): T1 sequence (Q16572 1-532 A330V) with V330A, C388A
Nature of the assay: [3H]ACh transport. The assay is classed as biochemical.

Where [1] appears, read: read-out: KM, Michaelis-Menten constant for ACh transport, pH 7.4.

From article PMC2962730 (Journal of neurochemistry, 2010) come the findings set out here.

The structures appear in SMILES notation. Numbering of substitutions follows the chain as printed.

For `O[C@@H]1CCCC[C@H]1N1CCC(c2ccccc2)CC1` (racemic) [vesamicol, ( )-trans-2-(4-phenylpiperidino)cyclohexanol], the “Bmax, maximal specific [3H]vesamicol binding (VAChT expression level)” value at hVAChT A330V stood at 21 ± 0 pmol/mg.
Take `CC(=O)OCC[N+](C)(C)C` [ACh, acetylcholine]: the “Vmax/Bmax, ACh transport normalized to Bmax” value was found to be 8.2 ± 1.0 min⁻¹ at hVAChT M316A (pH 7.4), 5.0 ± 0.5 min⁻¹ at hVAChT W325F (pH 7.4) and 12 ± 1 min⁻¹ at hVAChT C388A (pH 7.4). The results for the Km on hVAChT M316A (setting [1]), on hVAChT W325F (setting [1]) and at hVAChT C388A (setting [1]) were 1500 ± 300 µM, 1000 ± 300 µM and 2300 ± 500 µM, respectively. Moreover, the “ACh bound more weakly than by wild-type” value at hVAChT W331L (W331L hVAChT vs wild-type) is reported as 10 fold. The “FHA, fraction of the ACh sites that have high affinity” value at hVAChT W331L (W331L hVAChT, pH 7.4, monophasic fit, FHA fixed to 1) was found to be 1.0.
